# In ChEMBL document CHEMBL4387773, “Identification of potent, selective and orally bioavailable phenyl ((R)-3-phenylpyrrolidin-3-yl)sulfone analogues as RORγt inverse agonists” (Bioorg Med Chem Lett, 2019):
# Columns and labels:
# [1] = target: T1, Nuclear receptor subfamily 1 group I member 2 (Homo sapiens, UniProt O75469); test: Transactivation of PXR (unknown origin) expressed in human HepG2 cells; type: cell-based
# T1 sequence (O75469 whole entry): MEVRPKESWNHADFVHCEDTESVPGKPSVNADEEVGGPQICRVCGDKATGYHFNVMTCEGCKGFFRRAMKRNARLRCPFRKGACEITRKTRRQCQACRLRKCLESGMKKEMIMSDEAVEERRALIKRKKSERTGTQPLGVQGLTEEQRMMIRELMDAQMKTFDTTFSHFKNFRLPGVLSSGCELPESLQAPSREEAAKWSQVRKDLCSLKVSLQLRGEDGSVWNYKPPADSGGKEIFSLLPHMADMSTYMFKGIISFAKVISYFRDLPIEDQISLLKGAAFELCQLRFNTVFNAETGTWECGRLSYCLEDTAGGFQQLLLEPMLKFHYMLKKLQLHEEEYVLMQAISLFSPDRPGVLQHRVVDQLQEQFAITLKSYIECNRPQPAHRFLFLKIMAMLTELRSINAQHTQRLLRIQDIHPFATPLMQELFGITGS
# [2] = target: T2, Nuclear receptor ROR-beta (Homo sapiens, UniProt Q92753); test: Inverse agonist activity at human Gal4-fused RORbeta LBD (200 to 559 residues) expressed in human Jurkat cells measured after 18 hrs by steady-glo luciferase reporter gene assay; type: cell-based
# T2 sequence (Q92753 whole entry): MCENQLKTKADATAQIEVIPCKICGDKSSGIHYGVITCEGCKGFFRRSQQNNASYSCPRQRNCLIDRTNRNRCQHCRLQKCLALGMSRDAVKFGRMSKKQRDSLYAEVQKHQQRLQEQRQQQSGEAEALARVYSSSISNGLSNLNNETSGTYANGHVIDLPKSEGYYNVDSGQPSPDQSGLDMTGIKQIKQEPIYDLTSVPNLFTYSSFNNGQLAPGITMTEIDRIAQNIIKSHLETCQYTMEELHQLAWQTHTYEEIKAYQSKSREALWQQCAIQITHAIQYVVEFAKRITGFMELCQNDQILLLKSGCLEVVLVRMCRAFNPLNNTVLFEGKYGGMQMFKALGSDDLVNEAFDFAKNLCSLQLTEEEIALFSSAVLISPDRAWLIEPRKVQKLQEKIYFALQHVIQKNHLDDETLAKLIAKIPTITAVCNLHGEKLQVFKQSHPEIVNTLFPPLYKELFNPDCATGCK
# [3] = target: T3, Nuclear receptor ROR-alpha (Homo sapiens, UniProt P35398); test: Inverse agonist activity at human Gal4-fused RORalpha LBD (272 to 556 residues) expressed in human Jurkat cells measured after 18 hrs by steady-glo luciferase reporter gene assay; type: cell-based
# T3 sequence (P35398 whole entry): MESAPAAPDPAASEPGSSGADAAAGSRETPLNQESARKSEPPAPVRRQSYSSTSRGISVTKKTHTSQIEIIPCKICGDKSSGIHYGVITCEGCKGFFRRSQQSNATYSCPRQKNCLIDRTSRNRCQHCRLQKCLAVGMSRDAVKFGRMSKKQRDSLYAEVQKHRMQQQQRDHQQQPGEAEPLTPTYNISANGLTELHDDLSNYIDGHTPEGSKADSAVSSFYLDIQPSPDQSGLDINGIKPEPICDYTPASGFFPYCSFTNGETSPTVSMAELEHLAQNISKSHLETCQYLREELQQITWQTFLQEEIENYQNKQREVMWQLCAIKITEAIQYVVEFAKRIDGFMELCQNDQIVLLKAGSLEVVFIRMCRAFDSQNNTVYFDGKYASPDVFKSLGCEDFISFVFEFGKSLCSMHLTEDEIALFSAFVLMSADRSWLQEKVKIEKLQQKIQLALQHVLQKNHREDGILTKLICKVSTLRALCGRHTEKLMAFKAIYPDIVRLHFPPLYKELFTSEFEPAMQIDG
# [4] = target: T4, Oxysterols receptor LXR-beta (Homo sapiens, UniProt P55055); test: Transactivation of human GAL4-fused LXRbeta expressed in African green monkey CV1 cells; type: cell-based
# T4 sequence (P55055 whole entry): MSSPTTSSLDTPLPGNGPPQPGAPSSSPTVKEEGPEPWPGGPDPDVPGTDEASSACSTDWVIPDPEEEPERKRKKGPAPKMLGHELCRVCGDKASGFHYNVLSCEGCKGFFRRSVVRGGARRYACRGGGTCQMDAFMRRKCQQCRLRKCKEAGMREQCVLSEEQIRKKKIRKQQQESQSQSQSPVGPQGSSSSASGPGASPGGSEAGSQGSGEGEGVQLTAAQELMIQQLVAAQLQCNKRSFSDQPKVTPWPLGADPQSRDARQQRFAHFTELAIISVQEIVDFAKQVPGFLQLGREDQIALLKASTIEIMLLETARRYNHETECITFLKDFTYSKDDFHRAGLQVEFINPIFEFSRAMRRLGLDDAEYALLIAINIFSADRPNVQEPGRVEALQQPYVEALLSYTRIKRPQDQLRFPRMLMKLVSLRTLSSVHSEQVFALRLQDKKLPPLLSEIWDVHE
# PXR = target: T5, PXR (Homo sapiens, UniProt O75469); test: Transactivation of PXR (unknown origin) expressed in human HepG2 cells assessed as maximum receptor activation response relative to control; type: cell-based; settings: human HepG2 cells that express PXR, read-out: %max
# T5 sequence (O75469 whole entry): T1 sequence (O75469 whole entry)
# [5] = target: T6, Oxysterols receptor LXR-alpha (Homo sapiens, UniProt Q13133); test: Transactivation of human GAL4-fused LXRalpha expressed in African green monkey CV1 cells; type: cell-based
# T6 sequence (Q13133 whole entry): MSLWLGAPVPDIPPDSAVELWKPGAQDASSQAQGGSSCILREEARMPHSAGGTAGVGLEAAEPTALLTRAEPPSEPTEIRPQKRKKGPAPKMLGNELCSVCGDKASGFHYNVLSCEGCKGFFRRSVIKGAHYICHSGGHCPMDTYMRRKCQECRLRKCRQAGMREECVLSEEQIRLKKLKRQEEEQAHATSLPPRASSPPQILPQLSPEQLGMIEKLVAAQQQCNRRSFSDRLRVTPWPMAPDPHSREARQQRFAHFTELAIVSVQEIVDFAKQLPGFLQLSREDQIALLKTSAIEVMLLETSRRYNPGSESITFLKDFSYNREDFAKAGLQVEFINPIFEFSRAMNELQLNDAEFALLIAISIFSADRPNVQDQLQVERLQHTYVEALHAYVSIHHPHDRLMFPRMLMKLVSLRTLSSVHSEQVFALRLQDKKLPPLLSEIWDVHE
# [6] = Stability in human liver microsomes assessed as parent compound remaining after 10 mins; type: ADME, Microsome; settings: liver microsomes, read-out: Stability
# [7] = Stability in mouse liver microsomes assessed as parent compound remaining after 10 mins; type: ADME, Microsome; settings: liver microsomes, read-out: Stability
Structure (SMILES),EC50 [1],EC50 [2],EC50 [3],EC50 [4],Emax (PXR),EC50 [5],remaining at 10 min [6],remaining at 10 min [7]
O=C(O)[C@H]1[C@@H]2C[C@@H](C(=O)N3CC[C@](c4ccc(C(F)(C(F)(F)F)C(F)(F)F)cc4)(S(=O)(=O)c4ccc(F)cc4)C3)C[C@@H]21,> 50 µM,> 40 µM,> 40 µM,> 7.5 µM,15%,> 7.5 µM,100%,–
O=C(C1CCS(=O)(=O)C1)N1CC[C@](c2ccc(C(F)(C(F)(F)F)C(F)(F)F)cc2)(S(=O)(=O)c2ccc(F)cc2)C1 (stereo in doubt; 32),> 13 µM,> 40 µM,> 40 µM,> 7.5 µM,49%,> 7.5 µM,100%,78%
O=C(O)[C@@H]1[C@@H]2C[C@@H](C(=O)N3CC[C@](c4ccc(C(F)(C(F)(F)F)C(F)(F)F)cc4)(S(=O)(=O)c4ccc(F)cc4)C3)C[C@@H]21,> 50 µM,> 40 µM,> 40 µM,> 7.5 µM,11%,> 7.5 µM,100%,84%
O=C(O)C12CCC(C(=O)N3CC[C@](c4ccc(C(F)(C(F)(F)F)C(F)(F)F)cc4)(S(=O)(=O)c4ccc(F)cc4)C3)(CC1)OC2,> 50 µM,> 40 µM,> 40 µM,> 7.5 µM,5%,> 7.5 µM,90%,94%
COC(=O)[C@H]1CC[C@H](C(=O)N2CC[C@](c3ccc(C(F)(C(F)(F)F)C(F)(F)F)cc3)(S(=O)(=O)c3ccc(F)cc3)C2)CC1,–,> 40 µM,> 40 µM,> 7.5 µM,–,> 7.5 µM,–,–
CCC1(C(=O)N2CC[C@](c3ccc(C(F)(C(F)(F)F)C(F)(F)F)cc3)(S(=O)(=O)c3ccc(F)cc3)C2)CCS(=O)(=O)CC1,5.2 µM,> 40 µM,> 40 µM,> 7.5 µM,32%,> 7.5 µM,3%,0%
O=C(C1CCS(=O)(=O)CC1)N1CC[C@](c2ccc(C(F)(C(F)(F)F)C(F)(F)F)cc2)(S(=O)(=O)c2ccc(F)cc2)C1,> 50 µM,> 40 µM,> 40 µM,> 7.5 µM,5%,> 7.5 µM,93%,96%
O=C(O)C12CCC(C(=O)N3CC[C@](c4ccc(C(F)(C(F)(F)F)C(F)(F)F)cc4)(S(=O)(=O)c4ccc(F)cc4)C3)(CC1)C2,–,> 40 µM,> 40 µM,> 7.5 µM,–,> 7.5 µM,–,–
COC1(C(=O)N2CC[C@](c3ccc(C(F)(C(F)(F)F)C(F)(F)F)cc3)(S(=O)(=O)c3ccc(F)cc3)C2)CCS(=O)(=O)CC1,> 50 µM,> 40 µM,> 40 µM,> 7.5 µM,3%,> 7.5 µM,–,–
CC1(C(=O)N2CC[C@](c3ccc(C(F)(C(F)(F)F)C(F)(F)F)cc3)(S(=O)(=O)c3ccc(F)cc3)C2)CCS(=O)(=O)CC1,> 50 µM,> 40 µM,> 40 µM,> 7.5 µM,10%,> 7.5 µM,–,–
O=C(N1CC[C@](c2ccc(C(F)(C(F)(F)F)C(F)(F)F)cc2)(S(=O)(=O)c2ccc(F)cc2)C1)C12CCC(C(=O)O)(CC1)OC2,> 50 µM,> 40 µM,> 40 µM,> 7.5 µM,5%,> 7.5 µM,–,–

# Results, then the compound that gave them:
EC50 [1],EC50 [2],EC50 [3],EC50 [4],Emax (PXR),EC50 [5],remaining at 10 min [6],remaining at 10 min [7],Structure (SMILES)
10.6 µM,> 40 µM,> 40 µM,> 7.5 µM,31%,> 7.5 µM,–,–,O=C(O)[C@H]1CC[C@](F)(C(=O)N2CC[C@](c3ccc(C(F)(C(F)(F)F)C(F)(F)F)cc3)(S(=O)(=O)c3ccc(F)cc3)C2)CC1
> 50 µM,> 40 µM,> 40 µM,> 7.5 µM,13%,> 7.5 µM,86%,58%,O=C([C@H]1CC[C@H](O)CC1)N1CC[C@](c2ccc(C(F)(C(F)(F)F)C(F)(F)F)cc2)(S(=O)(=O)c2ccc(F)cc2)C1
> 50 µM,> 40 µM,> 40 µM,> 7.5 µM,18%,> 7.5 µM,97%,93%,C[C@]1(C(=O)O)CC[C@H](C(=O)N2CC[C@](c3ccc(C(F)(C(F)(F)F)C(F)(F)F)cc3)(S(=O)(=O)c3ccc(F)cc3)C2)CC1
> 50 µM,> 40 µM,> 40 µM,> 7.5 µM,7%,> 7.5 µM,100%,88%,COC[C@]1(C(=O)N2CC[C@](c3ccc(C(F)(C(F)(F)F)C(F)(F)F)cc3)(S(=O)(=O)c3ccc(F)cc3)C2)CC[C@H](C(=O)O)CC1
> 18 µM,> 40 µM,> 40 µM,> 7.5 µM,94%,> 7.5 µM,82%,95%,CO[C@]1(C(=O)N2CC[C@](c3ccc(C(F)(C(F)(F)F)C(F)(F)F)cc3)(S(=O)(=O)c3ccc(F)cc3)C2)CC[C@H](C(=O)O)CC1
> 50 µM,> 40 µM,> 40 µM,> 7.5 µM,6%,> 7.5 µM,100%,–,CC[C@]1(C(=O)O)CC[C@H](C(=O)N2CC[C@](c3ccc(C(F)(C(F)(F)F)C(F)(F)F)cc3)(S(=O)(=O)c3ccc(F)cc3)C2)CC1
–,> 40 µM,> 40 µM,> 7.5 µM,–,> 7.5 µM,–,–,CCC[C@]1(C(=O)N2CC[C@](c3ccc(C(F)(C(F)(F)F)C(F)(F)F)cc3)(S(=O)(=O)c3ccc(F)cc3)C2)CC[C@H](C(=O)O)CC1
–,> 40 µM,> 40 µM,> 7.5 µM,–,> 7.5 µM,97%,–,O=C(O)[C@H]1CC[C@H](C(=O)N2CC[C@](c3ccc(C(F)(C(F)(F)F)C(F)(F)F)cc3)(S(=O)(=O)c3ccc(F)cc3)C2)CC1
